Reference: patent US5336762A, “Polychelating agents for image and spectral enhancement (and spectral shift)” (priority 1991, dated 1994)

Columns and labels:
[1] = In vitro T1 relaxation of water protons (IBM PC20 Minispectrometer, 20 MHz); assay type: physicochemical
Source text: Fe^+3 as the dextran-iron oxide (in which the iron is complexed loosely to the hydroxyl groups of dextran), was obtained as "Proferdex" (20% iron, w/w) (Fisons Pharmaceuticals) and tested, both before and after extensive dialysis (to remove loosely bound iron), for NMR T1-enhancing activity in vitro (using an IBM PC20 Minispectrometer, 20 MHz).

liver = experiment: Liver T1 decrease in mice; assay type: in vivo; settings: usual 30-minute imaging interval; 0.10 to 0.30 mmoles/kg
[2] = system: liver, kidney, bone marrow; experiment: In vivo MR imaging of normal tissues, Sprague-Dawley rats (0.35 Tesla)
Source text: (§2) Sprague-Dawley rats were imaged using a 0.35-Tesla, Diasonics clinical MR imaging system and a 30-cm rf coil. Three clinically relevant pulse sequences were used: 1) spin-echo with a TR of 0.5 seconds (for T1-weighted images), 2) inversion-recovery (IR) (for T1-weighted images), and 3) spin-echo with a TR of 2.0 seconds (for T2-weighted images). Diasonics software was used to calculate the area-averaged tissue intensities before and after injection of contrast agents. Dual pulse sequences (spin-echo, with TR's of 0.5 and 1.5 seconds or 1.0 and 2.0 seconds) were also used to calculate the in vivo T1 relaxation times. At the conclusion of imaging, the liver, spleen and kidneys were excised and their T1 (IR) and T2 (Carr-Purcell-Meiboom-Gill) relaxation times were determined at 37° C., using an IBM PC20 Minispectrometer. For these in vitro experiments, uninjected rats were used in place of preinjection controls.
Post-contrast images were obtained serially beginning immediately after the i.v. injection of contrast agents and continuing for several hours thereafter.

spleen = experiment: T1 of freshly excised rat spleens; assay type: in vivo, Sprague-Dawley rats; settings: 30 min post vs. pre
Source text: as §2

[3] = system: 7777-strain Morris hepatoma; experiment: MR imaging of Morris hepatoma (7777) in Buffalo rats; assay type: in vivo, Buffalo-strain rats; settings: after injection
Procedure: After two to three weeks the local tumors had reached an average diameter of 0.5 and 1.0 cm. The rats were then imaged both before and after i.v. injections of Gd-DTPA or microsphere Gd-DTPA. MR imaging was performed in a 30cm rf coil with a 0.35 Tesla, Diasonics clinical MRI system (as described above). Post-contrast images were obtained serially beginning immediately after injection and continuing for several hours thereafter.

blood in heart chambers = experiment: T1-weighted blood flow images of cardiac chambers; assay type: in vivo, Sprague-Dawley rats; settings: comparable Gd dose
Procedure: Gd:DTPA-dextran microspheres (at 0.3 mmoles Gd/kg) were injected i.v. at time zero into Sprague-Dawley rats and images were obtained immediately and serially each 5 minutes×4 (spin-echo, multi-echo, TR=0.5 and 1.5).

liver, kidney = experiment: Proton T1 relaxation times in mouse organs (Example 18a); assay type: in vivo, CBA mice; settings: 30 min; Gd dose 0.23 mmol/kg (DEAE forms), 0.47 (dimeglumine)
Procedure: Test materials were injected i.v. into 25 gm CBA mice. At 30 min the mice were sacrificed by decapitation (exsanguination) and the excised livers and kidneys assessed for changes in proton T1 relaxation times (20 MHz; IR pulse sequence). Doses of test materials were made equivalent based on in vitro potency (ID50 analysis).

[4] = system: liver, kidney, bone marrow; experiment: In vivo MR imaging T1 in rats (Example 18b); parameters: species or system Sprague-Dawley rats; settings: Gd 0.30 (soluble), 0.15 (microspheres), 0.30 (dimeglumine) mmol/kg; ~30 min
Procedure: (§1) Test materials were injected intravenously into 500 gm Sprague-Dawley rats. At approximately 30 minutes, the rats were placed in the head coil of a 0.35 Tesla clinical imaging device (Diasonics Corp.), and T1-weighted images (using both a spin-echo pulse sequence at TR's of 0.5, 1.5 and 2.0, and an inversion recovery sequence) were obtained on image slices of 0.5 cm thickness taken through the liver and kidneys. T1 relaxation times were determined from the TR=0.5 and 2.0 data using area-averaging of signal intensities and a proprietary software program for calculations. At the completion of imaging, the rats were sacrificed by decapitation (exsanguination). Their livers, kidneys and spleens were excised, tested for in vitro correlations with the in vivo changes in proton T1 relaxation times and then placed in buffered formalin fixative for histopathologic evaluation.

liver, spleen, kidney = experiment: In vitro T1 of excised rat organs (Example 18b); assay type: in vivo, Sprague-Dawley rats; settings: same doses
Procedure: as §1

BRO human melanoma = experiment: MR imaging of human BRO melanoma in nude mice; assay type: in vivo, Swiss-strain nude mice bearing human melanoma
Procedure: These studies are performed using the rapidly proliferating, amelanotic, BRO human melanoma grown to a weight of 2.0-6.0 gms in the axillary soft tissues of Swiss-strain nude mice. The amelanotic nature of the tumor avoids any potential for alteration of unenhanced tissue-relaxation times by naturally occurring paramagnetic substances which have been described for pigmented melanomas. The axillary location of tumors allows imaging of the tumor and liver in adjacent slices. This shortens the imaging time for each group of mice and provides maximal anatomic separation of tumors from the higher-intensity kidneys and bladder. MR imaging is performed on a Diasonics 0.35T instrument, using a 30-cm rf coil, and a T1-weighted spin-echo pulse sequence (TR 500, TE 40). Pentobarbital is used for animal anesthesia in order to avoid drug modulation of image intensities. T1 relaxation were performed on the freshly excised organs. In general, these T1's decreased in proportion to increased image intensities. […] The new soluble polymeric agent had the following advantages: […]

[5] = cited from earlier work
[6] = cited from earlier work; remark: listed apart in the source
human brain tumors = settings: preliminary studies; cited from earlier work
[7] = 30 min post vs. pre, Gd 0.3 mmoles/kg dimeglumine, 0.009 mmoles/kg microspheres

`O=[N+]([O-])[O-].O=[N+]([O-])[O-].O=[N+]([O-])[O-].[Fe+3]` [Ferric nitrate] gave an R1 relaxivity ([1]; Table 1, iron compounds) of 1.476 mmol⁻¹ s⁻¹.
In the case of `CNC[C@H](O)[C@@H](O)[C@H](O)[C@H](O)CO.CNC[C@H](O)[C@@H](O)[C@H](O)[C@H](O)CO.O=C([O-])CN(CCN(CC(=O)[O-])CC(=O)O)CCN(CC(=O)[O-])CC(=O)O.[Gd+3]` [Gd:DTPA dimeglumine], the “ID50 (total weight), concentration reducing T1 to 50% of buffered saline” value ([1]; 20 MHz, phosphate-buffered saline) is reported as 84 µg/mL, the “changes in liver T1” value (liver) is reported as “minimal changes in liver Tl's” and the “% decrease in T1, kidney” value [2, 7] is reported as 55.7%. The “% decrease in T1, liver” value [2, 7] was 24.6%, the “time after which all liver enhancement was lost” value ([2]; rat, in vivo) was 50 min and the “% decrease in T1 of spleen” value (spleen) was 14.4%. The “time by which contrast was significantly reduced” value [3] was at most 1.5 h, the “enhancement of blood flow images” value (blood in heart chambers) was “almost completely ineffective” and the “T1 (% of control), kidney” value (liver, kidney) was 24%. The “T1 (% of control), liver” value (liver, kidney) was 83%, the “T1 (% of control), in vivo, kidney” value [4] was 57% and the “T1 (% of control), in vivo, liver” value [4] was 83%. The “T1 (% of control), in vitro, liver” value (liver, spleen, kidney; control 275 msec) was 88%, the “T1 (% of control), in vitro, spleen” value (liver, spleen, kidney; control 464 msec) was 86% and the “T1 (% of control), in vitro, kidney” value (liver, spleen, kidney; control 492 msec) was 25%. For the same molecule, the “enhancement of BRO melanoma” value (BRO human melanoma; 0.03 mmols Gd per kg) was “barely perceptible”, the “dose required for enhancement, higher than 0.03 mmols Gd per kg” value (BRO human melanoma; in vivo) was 1/2 and the “clearance half-time from bloodstream and tumors” value ([5]; in vivo) was 20 min. The “sequestered in the kidneys” value ([5]; intravenous) was over 90%, the “relaxivity at higher radio frequencies” value ([6]; typically 15 MHz) was “marked decrease in relaxivity” and the “enhancement of human brain tumors” value (human brain tumors) was “almost all human brain tumors undergo significant enhancement”.
In the case of `O=C(O)CN1CCN(CC(=O)O)CCN(CC(=O)O)CCN(CC(=O)O)CC1` [DOTA, 1,4,7,10-tetraazacyclododecane-N,N',N"-tetraacetic acid], the “relaxivity, times that of Gd-DTPA” value ([6]; wide range of Larmor frequencies) is listed as “approximately 2 times”.
In the case of `[Cl][Gd]([Cl])[Cl]` [GdCl3], the “R1 (in vitro T1 relaxivity)” value ([1]; physiologic saline) is reported as 3.03 mM⁻¹ s⁻¹.
